Measurements as given in PMC4737481 (Bioorganic & medicinal chemistry letters, 2015).
pIC50: −log10 of the molar value. “Also recorded” adds a separate entry of the source. Where two headings read alike, the source gives them in different places. Each block holds one compound with its values, some of them ahead of it.

Experiments:
[1] = system: MDCK cell monolayers; assay: permeability in MDCK cell monolayers; type: in vitro ADME; conditions: in words
[2] = molecular target: T1, CYP3A4 (Homo sapiens, UniProt P08684); assay: inhibition of CYP3A4 in vitro; type: in vitro ADME
T1 sequence (P08684 whole entry): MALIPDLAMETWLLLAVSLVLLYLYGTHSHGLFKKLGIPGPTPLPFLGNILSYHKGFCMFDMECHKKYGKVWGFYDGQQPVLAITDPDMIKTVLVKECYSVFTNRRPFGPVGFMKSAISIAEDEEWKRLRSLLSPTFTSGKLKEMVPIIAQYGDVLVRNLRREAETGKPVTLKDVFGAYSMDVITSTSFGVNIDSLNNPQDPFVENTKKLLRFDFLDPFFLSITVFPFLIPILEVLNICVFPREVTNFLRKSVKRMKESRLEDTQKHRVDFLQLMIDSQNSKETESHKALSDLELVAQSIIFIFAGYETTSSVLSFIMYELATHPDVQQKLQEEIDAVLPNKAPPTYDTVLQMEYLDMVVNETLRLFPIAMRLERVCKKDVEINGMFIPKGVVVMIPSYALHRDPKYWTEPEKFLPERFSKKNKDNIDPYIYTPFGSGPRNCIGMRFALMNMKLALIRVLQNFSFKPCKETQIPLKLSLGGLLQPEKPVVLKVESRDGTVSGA

[3] = stability to cultured liver microsomes; type: in vitro ADME; conditions: in words
[4] = system: T cruzi; conditions: T cruzi infected mice, 20 mg/kg BID (ip) for 27 days; cited from earlier work
[5] = system: T. cruzi parasites; conditions: cited from earlier work
[6] = system: intracellular T. cruzi in C2C12 host cells; assay: antitrypanosomal high-content imaging assay; type: cell-based
[7] = in vivo PK studies in mice; conditions: PO 40 mg/kg
[8] = molecular target: T1, CYP3A4; conditions: background statement on 1; cited from earlier work
[9] = ref not given, cited from earlier work
[10] = system: Chagas' disease; conditions: dog, oral 50 mg/kg BID for 14 days; cited from earlier work
[11] = system: P-glycoprotein; conditions: ref not given; cited from earlier work

Compound: CCCCC(C(=O)COc1c(F)c(F)cc(F)c1F)n1cc([C@@](C)(NCc2ccc3ncccc3c2)C(C)C)nn1 (stereo partly drawn) [Compound 4]
Permeability in an MDCK cell monolayer assay [1]: modest-to-low
CYP3A4 inhibition (in words) [2]: low μM regime
stability to cultured liver microsomes [3]: reasonable stability
hematological cure (treated animals) [4]: 2/4
activity against T. cruzi parasites in two different cell-based assays [5]: effective

Exposure following PO dosing relative to compound 4 [7]: two-fold higher
Compound: CCCCC(C(=O)COc1c(F)c(F)cc(F)c1F)n1cc([C@@](C)(NCc2ccn3nccc3n2)C2CCCC2)nn1 (stereo partly drawn) [Compound 21]
improvement of in vitro potency relative to 4 ([6]; assay not specified): ~ 10 fold

Compound: CN1CCN(C(=O)N[C@@H](Cc2ccccc2)C(=O)N[C@H](/C=C/S(=O)(=O)c2ccccc2)CCc2ccccc2)CC1 [Compound 1, K777]
CYP3A4 inhibition (in words) [8]: irreversibly inhibits CYP3A4; also recorded: low μM regime
dose-exposure pharmacokinetics [9]: nonlinear dose-exposure pharmacokinetics
oral bioavailability ([9]; species not stated): 5–20%
cardiac tissue damage [10]: partially protected animals from cardiac tissue damage
parasitemia [10]: reduced parasitemia below levels detectable by hemocytometry
P-glycoprotein substrate [11]: substrate for P-glycoprotein

Exposure following PO dosing relative to compound 4 [7]: two-fold higher
Compound: CCCCC(C(=O)COc1c(F)c(F)cc(F)c1F)n1cc([C@@](C)(NCc2ccc3ncccc3c2)C2CCCC2)nn1 (stereo partly drawn) [Compound 8]

Compound: CCCCC(C(=O)COc1c(F)c(F)cc(F)c1F)n1cc([C@@](C)(NCc2ccn3nccc3n2)C(C)C)nn1 (stereo partly drawn) [Compound 20]
pIC50 ([6]; Trypanosoma cruzi, C2C12, read-out: T. cruzi IC50): 8.00
